Data published in PMC9524145, “Open channel block of Kv1.5 channels by HMQ1611” (Frontiers in Pharmacology, 2022).

Tests used:
Format in all cases: cell-based
[1] = target: T1, hKv1.5 V512A mutant channel (Homo sapiens, UniProt P22460, V512A); assay: whole-cell patch-clamp of V512A mutant hKv1.5 current in CHO cells; conditions: 5 μM HMQ1611, late current at +30 mV, n = 6, p < 0.01 vs. WT
T1 construct: Full-length cDNA encoding wild-type (WT) hKv1.5 (KCNA5) subcloned into the pcDNA3.1 expression vector; expressed in transfected cells; host or cells: CHO cells, transient transfection (pcDNA3.1), GFP cDNA co-transfected as a separate marker
T1 sequence (P22460 whole entry V512A): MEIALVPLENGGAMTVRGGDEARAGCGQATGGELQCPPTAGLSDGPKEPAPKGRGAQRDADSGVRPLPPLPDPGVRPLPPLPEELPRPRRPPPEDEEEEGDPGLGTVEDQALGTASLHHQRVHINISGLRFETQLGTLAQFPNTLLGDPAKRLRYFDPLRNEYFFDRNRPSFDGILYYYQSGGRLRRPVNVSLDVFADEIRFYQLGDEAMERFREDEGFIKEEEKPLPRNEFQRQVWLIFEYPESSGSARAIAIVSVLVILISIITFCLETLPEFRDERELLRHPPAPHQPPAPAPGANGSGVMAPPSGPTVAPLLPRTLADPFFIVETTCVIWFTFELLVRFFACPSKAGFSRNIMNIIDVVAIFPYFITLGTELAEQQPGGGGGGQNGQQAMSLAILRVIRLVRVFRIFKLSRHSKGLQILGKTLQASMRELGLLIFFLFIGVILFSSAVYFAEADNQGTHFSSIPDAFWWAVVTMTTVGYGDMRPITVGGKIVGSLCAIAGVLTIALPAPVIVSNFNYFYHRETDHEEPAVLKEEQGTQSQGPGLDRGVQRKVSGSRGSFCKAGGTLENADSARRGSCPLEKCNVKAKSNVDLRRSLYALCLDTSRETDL
Text: (§1) Full-length cDNA encoding wild-type (WT) hKv1.5 (KCNA5) subcloned into the pcDNA3.1 expression vector was kindly provided by Dr. David Fedida (University of British Columbia, Canada). All hKv1.5 mutants (T462C, H463C, T479A, T480A, R487V, A501V, I502A, V505A, I508A, A509G, L510A, V512A, and V516A cDNAs) were constructed using a QuickChange II XL site-directed mutagenesis kit according to the manufacturer’s instructions (Stratagene, La Jolla, CA, USA) and subcloned into the pcDNA3.1. All mutants were fully sequenced (ABI3100x; Applied Biosystems, Foster City, CA, USA) to ensure fidelity.
(§2) WT or mutant hKv1.5 cDNA was transiently transfected into CHO cells together with green fluorescent protein (GFP) cDNA (0.5 μg WT or mutant hKv1.5 + 0.5 μg GFP) using Lipofectamine (Invitrogen Life Technologies, Carlsbad, CA, USA). […]
(§3) Kv1.5 currents were recorded using an EPC-8 patch-clamp amplifier (HEKA, Lambrecht, Germany) at 25°C. […]
(§4) The concentration–response curve for inhibition of hKv1.5 current by HMQ1611 was drawn by a least-squares fit of the Hill equation: %Control=1/(1+(IC50/[D])^nH), (2) where % Control represents the current in presence of the drug normalized with reference to the control amplitude (expressed as a percentage), IC50 is the concentration of HMQ1611 causing a half-maximal inhibition, nH is the Hill coefficient, and [D] is the drug concentration. […]

[2] = target: T2, hKv1.5 T480A mutant channel (Homo sapiens, UniProt P22460, T480A); assay: whole-cell patch-clamp of T480A mutant hKv1.5 current in CHO cells
T2 construct: Full-length cDNA encoding wild-type (WT) hKv1.5 (KCNA5) subcloned into the pcDNA3.1 expression vector; expressed in transfected cells; host or cells: CHO cells, transient transfection (pcDNA3.1), GFP cDNA co-transfected as a separate marker
T2 sequence (P22460 whole entry T480A): as the sequence (P22460 whole entry V512A) above, with T480A, A512V counted along it
Text: as §1, §2, §3, §4

[3] = target: T3, wild-type (WT) hKv1.5 (KCNA5) channel (Homo sapiens, UniProt P22460); assay: whole-cell patch-clamp of wild-type hKv1.5 current in transfected CHO cells
T3 construct: Full-length cDNA encoding wild-type (WT) hKv1.5 (KCNA5) subcloned into the pcDNA3.1 expression vector; expressed in transfected cells; host or cells: CHO cells, transient transfection (pcDNA3.1), GFP cDNA co-transfected as a separate marker
T3 sequence (P22460 whole entry): as the sequence (P22460 whole entry V512A) above, with A512V counted along it
Description: Chinese hamster ovary (CHO) cells donated by Dr. Takeru Makiyama (Kyoto University Graduate School of Medicine, Japan) were cultured in Dulbecco’s modified Eagle’s medium/Ham’s F-12 (DMEM/F-12) medium supplemented with 10% fetal bovine serum and antibiotics (100 IU/ml penicillin and 100 μg/ml streptomycin) in a humidified atmosphere with 5% CO2 and 95% air at 37°C. Cells were passaged every 3–4 days with trypsin–EDTA, and a portion of the cells was seeded onto glass cover slips (5 × 3 mm^2) for subsequent transfection.
as §1
(§5) WT or mutant hKv1.5 cDNA was transiently transfected into CHO cells together with green fluorescent protein (GFP) cDNA (0.5 μg WT or mutant hKv1.5 + 0.5 μg GFP) using Lipofectamine (Invitrogen Life Technologies, Carlsbad, CA, USA). Patch-clamp experiments were conducted on GFP-positive cells 48 h after transfection.
(§6) Kv1.5 currents were recorded using an EPC-8 patch-clamp amplifier (HEKA, Lambrecht, Germany) at 25°C. The data were low-pass filtered at 1 kHz, acquired at 5 kHz through an LIH-1600 analogue-to-digital converter (HEKA), and stored on a hard disc drive using Pulse/PulseFit software (HEKA). For experiments to measure the activation time course of hKv1.5 currents, the data were low-pass filtered at 10 kHz and sampled at 50 kHz. […] Cells attached to glass cover slips were transferred to a recording chamber (0.5 ml in volume) mounted on the stage of an inverted microscope (ECLIPSE TE2000-U, Nikon, Tokyo, Japan) and perfused continuously with Tyrode solution at a flow rate of 1 ml/min.
hKv1.5 channel currents were elicited by applying 300 ms depolarizing steps from a holding potential of -80 mV to various levels of -50 mV to +50 mV in 10 mV steps with a return potential of -40 mV, and each stimulus interval was longer than 10 s. Voltage-dependent activation of hKv1.5 channels was assessed by fitting the normalized I–V relations of the tail currents to a Boltzmann equation: Itail=1/(1+exp((V1/2−Vm)/k)), (1) where I tail is the tail current amplitude normalized with reference to the maximum value measured at +50 mV, V 1/2 is the voltage at half-maximal activation, V m is the test potential, and k is the slope factor.
The concentration–response curve for inhibition of hKv1.5 current by HMQ1611 was drawn by a least-squares fit of the Hill equation: %Control=1/(1+(IC50/[D])^nH), (2) where % Control represents the current in presence of the drug normalized with reference to the control amplitude (expressed as a percentage), IC50 is the concentration of HMQ1611 causing a half-maximal inhibition, nH is the Hill coefficient, and [D] is the drug concentration.
The apparent rate constants for binding (k +1) and unbinding (k -1) were obtained by fitting the equation: τD=1/(k+1[D]+k−1), (3) where τD is the drug-induced time constant, which was calculated from single exponential fits to the traces of current decay during the depolarizing step to +30 mV.
The apparent dissociation constant K D is expressed as kD=k−1/k+1. (4)
Deactivation kinetics of hKv1.5 were determined by fitting a single exponential function to the tail current trace (obtained by depolarizing a cell to +30 mV for 300 ms, followed by a repolarizing pulse to -40 mV).
Normal Tyrode solution contained 140 mM NaCl, 5.4 mM KCl, 1.8 mM CaCl2, 0.5 mM MgCl2, 0.33 mM NaH2PO4, 5.5 mM glucose, and 5.0 mM HEPES (pH adjusted to 7.4 with NaOH). […]

[4] = target: T4, hKv1.5 I508A mutant channel (Homo sapiens, UniProt P22460, I508A); assay: whole-cell patch-clamp of I508A mutant hKv1.5 current in CHO cells
T4 construct: Full-length cDNA encoding wild-type (WT) hKv1.5 (KCNA5) subcloned into the pcDNA3.1 expression vector; expressed in transfected cells; host or cells: CHO cells, transient transfection (pcDNA3.1), GFP cDNA co-transfected as a separate marker
T4 sequence (P22460 whole entry I508A): as the sequence (P22460 whole entry V512A) above, with I508A, A512V counted along it
Text: as §1, §5, §6, §4

[5] = target: T5, hKv1.5 V516A mutant channel (Homo sapiens, UniProt P22460, V516A); assay: whole-cell patch-clamp of V516A mutant hKv1.5 current in CHO cells
T5 construct: Full-length cDNA encoding wild-type (WT) hKv1.5 (KCNA5) subcloned into the pcDNA3.1 expression vector; expressed in transfected cells; host or cells: CHO cells, transient transfection (pcDNA3.1), GFP cDNA co-transfected as a separate marker
T5 sequence (P22460 whole entry V516A): as the sequence (P22460 whole entry V512A) above, with A512V, V516A counted along it
Text: as §1, §2, §3, §4

[6] = target: T6, hKv1.5 L510A mutant channel (Homo sapiens, UniProt P22460, L510A); assay: whole-cell patch-clamp of L510A mutant hKv1.5 current in CHO cells; conditions: 5 μM HMQ1611, late current at +30 mV, n = 6, p < 0.01 vs. WT
T6 construct: Full-length cDNA encoding wild-type (WT) hKv1.5 (KCNA5) subcloned into the pcDNA3.1 expression vector; expressed in transfected cells; host or cells: CHO cells, transient transfection (pcDNA3.1), GFP cDNA co-transfected as a separate marker
T6 sequence (P22460 whole entry L510A): as the sequence (P22460 whole entry V512A) above, with L510A, A512V counted along it
Text: as §1, §2, §3, §4

[7] = target: T7, hKv1.5 T479A mutant channel (Homo sapiens, UniProt P22460, T479A); assay: whole-cell patch-clamp of T479A mutant hKv1.5 current in CHO cells; conditions: 5 μM HMQ1611, late current at +30 mV, n = 8, p < 0.01 vs. WT
T7 construct: Full-length cDNA encoding wild-type (WT) hKv1.5 (KCNA5) subcloned into the pcDNA3.1 expression vector; expressed in transfected cells; host or cells: CHO cells, transient transfection (pcDNA3.1), GFP cDNA co-transfected as a separate marker
T7 sequence (P22460 whole entry T479A): as the sequence (P22460 whole entry V512A) above, with T479A, A512V counted along it
Text: as §1, §2, §3, §4

[8] = target: T8, hKv1.5 V505A mutant channel (Homo sapiens, UniProt P22460, V505A); assay: whole-cell patch-clamp of V505A mutant hKv1.5 current in CHO cells
T8 construct: Full-length cDNA encoding wild-type (WT) hKv1.5 (KCNA5) subcloned into the pcDNA3.1 expression vector; expressed in transfected cells; host or cells: CHO cells, transient transfection (pcDNA3.1), GFP cDNA co-transfected as a separate marker
T8 sequence (P22460 whole entry V505A): as the sequence (P22460 whole entry V512A) above, with V505A, A512V counted along it
Text: as §1, §5, §6, §4

[9] = from τD of current decay at +30 mV vs drug concentration

Question: For `CNC(=O)c1ccc(OC)c(OCC(=O)Nc2ccc(F)c(Cl)c2)c1-c1c(C(=O)NC)ccc(OC)c1OCC(=O)Nc1ccc(F)c(Cl)c1` [HMQ1611], which inhibition at 5 µM [1] is on record?
Answer: 47.2 ± 3.86%

Question: And the inhibition at 5 µM ([2]; CHO, T480A, 5 μM HMQ1611, late current at +30 mV, n = 7, p < 0.01 vs. WT)?
Answer: 15.3 ± 2.5%

Question: And the “fold decrease in blocking potency compared with IC50 of WT channel” value (“fold decrease in blocking potency” below) ([2]; T480A vs WT)?
Answer: 7 fold

Question: And the “time to start of inhibition on exposure” value ([3]; 5 μM HMQ1611)?
Answer: 5 to 10 s

Question: What about the “time to steady state inhibition” value ([3]; 5 μM HMQ1611) of the same compound?
Answer: ≤ 3 min

Question: What about the “peak current amplitude at the first depolarizing step” value ([3]; 5 μM HMQ1611, 1 Hz train, control 6.11 ± 0.99 nA, n = 7, p > 0.05) of the same compound?
Answer: 5.97 ± 0.98 nA

Question: And the “decrease of peak amplitude of hKv1.5 current at the 20th pulse vs first pulse” value ([3]; 5 μM HMQ1611, 1 Hz, control 18.29 ± 2.20%, n = 7)?
Answer: 46.57 ± 4.19%

Question: What about the “peak current amplitude at the first depolarizing step” value ([3]; 5 μM HMQ1611, 2 Hz train, control 5.82 ± 1.14 nA, n = 6, p > 0.05) of the same compound?
Answer: 5.67 ± 0.99 nA

Question: And the “decrease of peak amplitude of hKv1.5 current at the 20th pulse vs first pulse” value ([3]; 5 μM HMQ1611, 2 Hz, control 32.73 ± 1.74%, n = 6)?
Answer: 66.47 ± 2.38%

Question: And the “steady state level of inhibition of hKv1.5 current” value ([3]; 5 μM HMQ1611, representative time course, end of 300 ms step to +30 mV, within 3 min)?
Answer: approximately 86 % inhibition

Question: And the activation time constant ([3]; 5 μM HMQ1611, step to +30 mV, control 1.50 ± 0.25 ms, n = 7, p > 0.05)?
Answer: 1.47 ± 0.18 ms

Question: And the inhibition at 5 µM ([3]; CHO, WT, 5 μM HMQ1611, late current at end of 300 ms step to +30 mV, n = 7)?
Answer: 83.9 ± 4.06%

Question: What about the IC50 ([3]; WT, late current at end of 300 ms depolarizing step to +30 mV, CHO cells, Hill fit, n = 7, read-out: IC50 for inhibition of hKv1.5 current) of the same compound?
Answer: 2.07 ± 0.21 µM

Question: And the “recovery of hKv1.5 current after washout” value ([3]; after 5 μM HMQ1611, within 10 min after washout with normal Tyrode solution)?
Answer: 94.64 % of the control value

Question: And the Kd ([3]; apparent dissociation constant, +30 mV, read-out: KD value derived by (k-1)/(k+1))?
Answer: 4.48 µM

Question: And the “slope factor k of Boltzmann activation fit” value ([3]; during exposure to 5 μM HMQ1611, control 14.09, 6 cells, p < 0.01 vs. control)?
Answer: 1.34

Question: What about the “V1/2 (voltage at half-maximal activation, tail currents)” value ([3]; during exposure to 5 μM HMQ1611, control -0.76 mV, 6 cells, p < 0.01 vs. control) of the same compound?
Answer: -29.9 mV

Question: And the “apparent binding rate constant (k+1)” value [3, 9]?
Answer: 6.65e+06 M⁻¹ s⁻¹

Question: What about the “apparent unbinding rate constant (k-1)” value [3, 9] of the same compound?
Answer: 29.9 s⁻¹

Question: And the deactivation time constant ([3]; in presence of 5 μM HMQ1611, tail current at -40 mV after +30 mV, control 14.8 ± 1.4 ms, n = 10, p > 0.05)?
Answer: 13.1 ± 2.3 ms

Question: What about the “effect of intracellular dialysis on Kv1.5 currents” value ([3]; intracellular dialysis of cells with 5 μM HMQ1611 for 4 min after whole-cell configuration) of the same compound?
Answer: did not change the Kv1.5 currents

Question: And the inhibition at 5 µM ([4]; CHO, I508A, 5 μM HMQ1611, late current at +30 mV, n = 7, p < 0.01 vs. WT)?
Answer: 16.2 ± 2.09%

Question: And the “fold decrease in blocking potency” value ([4]; I508A vs WT)?
Answer: 5 fold

Question: And the IC50 ([4]; I508A, Hill fit, n = 7)?
Answer: 10.5 ± 0.41 µM

Question: What about the inhibition at 5 µM ([5]; CHO, V516A, 5 μM HMQ1611, late current at +30 mV, n = 6, p < 0.01 vs. WT) of the same compound?
Answer: 44.6 ± 5.48%

Question: What about the “fold decrease in blocking potency” value ([5]; V516A vs WT) of the same compound?
Answer: 4 fold

Question: And the inhibition at 5 µM [6]?
Answer: 11.2 ± 2.24%

Question: And the inhibition at 5 µM [7]?
Answer: 51.1 ± 4.99%

Question: And the inhibition at 5 µM ([8]; CHO, V505A, 5 μM HMQ1611, late current at +30 mV, n = 7, p < 0.01 vs. WT)?
Answer: 44 ± 4.4%

Question: What about the “fold decrease in blocking potency” value ([8]; V505A vs WT) of the same compound?
Answer: 3 fold

Question: And the IC50 ([8]; V505A, Hill fit, n = 7)?
Answer: 6.44 ± 0.18 µM
